Laboratory results published in ChEMBL document CHEMBL4049442, “Design, Synthesis, and Biological Evaluation of Dimorpholine Substituted Thienopyrimidines as Potential Class I PI3K/mTOR Dual Inhibitors” (J Med Chem, 2017).
Activity calls are given as the source filed them. The calls are words filed in the database; no cut-off is given here.

What was measured:
[1] = Cmax in Sprague-Dawley rat at 10 mg/kg, po by LC-MS/MS analysis; assay type: ADME, organism-based; set-up: dose 10 mg/kg, route oral; details: in vivo
[2] = Oral bioavailability in Sprague-Dawley rat at 10 mg/kg by LC-MS/MS analysis; assay type: ADME, organism-based; details: in vivo
[3] = Half-life in Sprague-Dawley rat at 2 mg/kg, iv by LC-MS/MS analysis; details: in vivo
SK-OV-3 [4] = test: Antitumor activity against human SKOV3 cells xenografted in BALB/c nude mouse assessed as TUNEL positive cells at 15 to 60 mg/kg/day, po for 24 days; assay type: functional, organism-based
SK-OV-3 [5] = test: Antitumor activity against human SKOV3 cells xenografted in BALB/c nude mouse assessed as tumor growth inhibition at 60 mg/kg/day, po for 24 days measured every 3 days during compound dosing relative to control; assay type: functional; details: SK-OV-3, po, read-out: TGI
[6] = molecular target: PI3-kinase p110-alpha/p85-alpha (Homo sapiens, UniProt P42336); test: Inhibition of full length recombinant human N-terminal His-tagged PI3K p110alpha/p85alpha expressed in baculovirus using PIP2 as substrate after 1 hr by kinase-glo luminescence assay
SK-OV-3 [7] = test: Antitumor activity against human SKOV3 cells xenografted in BALB/c nude mouse assessed as tumor growth inhibition administered via po for 24 days measured every 3 days during compound dosing; assay type: functional, organism-based
[8] = AUC in Sprague-Dawley rat at 10 mg/kg, po by LC-MS/MS analysis; assay type: ADME, organism-based; details: in vivo
U-87 MG [9] = test: cells; details: Homo sapiens, 72 h
LNCaP = test: cells; details: Homo sapiens, 72 h
Homo sapiens [10] = organism: Homo sapiens; test: Inhibition of PI3K in human SKOV3 cells assessed as reduction in Akt phosphorylation at S473 after 24 hrs by Western blot analysis; assay type: cell-based
[11] = Volume of distribution at steady state in Sprague-Dawley rat at 2 mg/kg, iv by LC-MS/MS analysis; assay type: ADME, organism-based; details: in vivo, read-out: Vdss
Mus musculus [12] = test: Toxicity in BALB/c nude mouse xenografted with human U87MG cells assessed as body weight loss at 20 to 40 mg/kg/day, po for 18 days measured every 3 days during compound dosing; assay type: organism-based; details: in vivo
Homo sapiens [13] = organism: Homo sapiens; test: Inhibition of PI3K in human U87MG cells assessed as reduction in Akt phosphorylation at S473 after 24 hrs by Western blot analysis; assay type: cell-based
Mus musculus [14] = test: In vivo inhibition of PI3K in BALB/c nude mouse xenografted with human SKOV3 cells assessed as reduction in Akt phosphorylation at S473 in tumors administered po for 24 days by immunohistochemical analysis; assay type: functional, organism-based
Homo sapiens [15] = organism: Homo sapiens; test: Inhibition of PI3K in human SKOV3 cells assessed as reduction in S6 phosphorylation after 24 hrs by Western blot analysis; assay type: cell-based
SK-OV-3 [16] = test: cells; details: Homo sapiens, SK-OV-3, 72 h
Mus musculus [17] = test: Toxicity in BALB/c nude mouse xenografted with human SKOV3 cells assessed as body weight loss at 15 to 60 mg/kg/day, po for 24 days measured every 3 days during compound dosing; assay type: organism-based; details: in vivo
U-87 MG [18] = test: Antitumor activity against human U87MG cells xenografted in BALB/c nude mouse assessed as tumor growth inhibition at 40 mg/kg/day, po for 18 days measured every 3 days during compound dosing relative to control; assay type: functional, U-87MG ATCC; details: read-out: TGI
U-87 MG [19] = test: Antitumor activity against human U87MG cells xenografted in BALB/c nude mouse assessed as tumor growth inhibition administered po for 18 days measured every 3 days during compound dosing; assay type: functional, organism-based; details: U-87MG ATCC
[20] = molecular target: Phosphatidylinositol 4,5-bisphosphate 3-kinase catalytic subunit gamma isoform (Homo sapiens, UniProt P48736); test: Inhibition of recombinant human His-tagged PI3K p110gamma expressed in baculovirus using PIP2 as substrate after 1 hr by kinase-glo luminescence assay
U-87 MG [21] = test: Antitumor activity against human U87MG cells xenografted in BALB/c nude mouse assessed as tumor growth inhibition at 20 mg/kg/day, po for 18 days measured every 3 days during compound dosing relative to control; assay type: functional, U-87MG ATCC; details: read-out: TGI
SK-OV-3 [22] = test: Antitumor activity against human SKOV3 cells xenografted in BALB/c nude mouse assessed as tumor growth inhibition at 15 mg/kg/day, po for 24 days measured every 3 days during compound dosing relative to control; assay type: functional; details: SK-OV-3, po, read-out: TGI
[23] = molecular target: PI3-kinase p110-delta/p85-alpha (Homo sapiens, UniProt O00329); test: Inhibition of recombinant full length human N-terminal His6-tagged PI3K p110delta/p85alpha expressed in baculovirus infected Sf21 cells using PIP2 as substrate after 2 hrs by kinase-glo luminescence assay
[24] = molecular target: Serine/threonine-protein kinase mTOR (Homo sapiens, UniProt P42345); test: Inhibition of recombinant human N-terminal FLAG-tagged mTOR (1362 to end residues) expressed in baculovirus infected Sf21 insect cells assessed as reduction in ULight-4E-BP1 phosphorylation after 30 mins by lance ultra assay
Homo sapiens [25] = organism: Homo sapiens; test: Inhibition of PI3K in human U87MG cells assessed as reduction in S6 phosphorylation after 24 hrs by Western blot analysis; assay type: cell-based
Mus musculus [26] = test: In vivo inhibition of PI3K in BALB/c nude mouse xenografted with human SKOV3 cells assessed as reduction in S6RP phosphorylation at Ser235/236 administered po for 24 days in tumors by immunohistochemical analysis; assay type: functional, organism-based
SK-OV-3 [27] = test: Antitumor activity against human SKOV3 cells xenografted in BALB/c nude mouse assessed as tumor growth inhibition at 30 mg/kg/day, po for 24 days measured every 3 days during compound dosing relative to control; assay type: functional; details: SK-OV-3, po, read-out: TGI
[28] = Clearance in Sprague-Dawley rat at 2 mg/kg, iv by LC-MS/MS analysis; assay type: ADME, organism-based; details: in vivo
Homo sapiens [29] = organism: Homo sapiens; test: Inhibition of PI3K in human SKOV3 cells assessed as reduction in Akt phosphorylation at T308 after 24 hrs by Western blot analysis; assay type: cell-based
SK-OV-3 [30] = test: Antitumor activity against human SKOV3 cells xenografted in BALB/c nude mouse assessed as decrease in cell proliferation administered po for 24 days by Ki67 staining based assay; assay type: functional, organism-based
[31] = molecular target: Phosphatidylinositol 4,5-bisphosphate 3-kinase catalytic subunit beta isoform (Homo sapiens, UniProt P42338); test: Inhibition of PI3Kbeta (unknown origin) using PIP2 as substrate after 1 hr by ADP-Glo luminescence assay
PC-3 = test: cells; details: Homo sapiens, PC-3, 72 h
Homo sapiens [32] = organism: Homo sapiens; test: Inhibition of PI3K in human U87MG cells assessed as reduction in Akt phosphorylation at T308 after 24 hrs by Western blot analysis; assay type: cell-based

Phosphatidylinositol 4,5-bisphosphate 3-kinase catalytic subunit gamma isoform, sequence (P48736 whole entry, canonical isoform): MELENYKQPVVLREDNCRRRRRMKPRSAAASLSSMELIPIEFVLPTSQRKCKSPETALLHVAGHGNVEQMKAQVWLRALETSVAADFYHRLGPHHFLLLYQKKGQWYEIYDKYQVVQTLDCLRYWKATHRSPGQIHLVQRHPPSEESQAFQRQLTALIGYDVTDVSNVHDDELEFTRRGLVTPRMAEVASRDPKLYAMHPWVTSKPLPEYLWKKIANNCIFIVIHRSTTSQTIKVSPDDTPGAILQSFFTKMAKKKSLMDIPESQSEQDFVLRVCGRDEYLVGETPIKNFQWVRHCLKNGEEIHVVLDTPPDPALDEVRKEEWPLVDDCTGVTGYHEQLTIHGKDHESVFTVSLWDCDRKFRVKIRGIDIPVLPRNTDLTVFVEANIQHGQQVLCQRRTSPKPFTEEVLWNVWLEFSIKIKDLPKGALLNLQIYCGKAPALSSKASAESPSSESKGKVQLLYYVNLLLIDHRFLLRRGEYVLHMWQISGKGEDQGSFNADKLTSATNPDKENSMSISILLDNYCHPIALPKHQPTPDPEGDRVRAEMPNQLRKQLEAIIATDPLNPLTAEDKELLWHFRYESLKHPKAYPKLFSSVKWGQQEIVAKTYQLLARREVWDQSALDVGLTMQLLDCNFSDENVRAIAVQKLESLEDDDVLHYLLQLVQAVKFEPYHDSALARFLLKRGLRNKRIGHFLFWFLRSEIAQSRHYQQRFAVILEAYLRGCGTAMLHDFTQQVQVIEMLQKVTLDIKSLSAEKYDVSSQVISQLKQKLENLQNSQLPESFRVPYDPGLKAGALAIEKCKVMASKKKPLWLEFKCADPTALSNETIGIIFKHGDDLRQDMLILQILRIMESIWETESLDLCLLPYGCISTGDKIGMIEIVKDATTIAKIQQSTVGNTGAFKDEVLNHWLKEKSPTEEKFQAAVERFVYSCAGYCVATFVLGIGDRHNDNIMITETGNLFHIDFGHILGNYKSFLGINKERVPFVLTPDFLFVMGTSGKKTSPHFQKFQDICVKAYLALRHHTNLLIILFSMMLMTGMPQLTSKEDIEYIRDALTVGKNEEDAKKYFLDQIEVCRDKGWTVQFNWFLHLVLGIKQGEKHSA
Phosphatidylinositol 4,5-bisphosphate 3-kinase catalytic subunit beta isoform, sequence (P42338 whole entry, canonical isoform): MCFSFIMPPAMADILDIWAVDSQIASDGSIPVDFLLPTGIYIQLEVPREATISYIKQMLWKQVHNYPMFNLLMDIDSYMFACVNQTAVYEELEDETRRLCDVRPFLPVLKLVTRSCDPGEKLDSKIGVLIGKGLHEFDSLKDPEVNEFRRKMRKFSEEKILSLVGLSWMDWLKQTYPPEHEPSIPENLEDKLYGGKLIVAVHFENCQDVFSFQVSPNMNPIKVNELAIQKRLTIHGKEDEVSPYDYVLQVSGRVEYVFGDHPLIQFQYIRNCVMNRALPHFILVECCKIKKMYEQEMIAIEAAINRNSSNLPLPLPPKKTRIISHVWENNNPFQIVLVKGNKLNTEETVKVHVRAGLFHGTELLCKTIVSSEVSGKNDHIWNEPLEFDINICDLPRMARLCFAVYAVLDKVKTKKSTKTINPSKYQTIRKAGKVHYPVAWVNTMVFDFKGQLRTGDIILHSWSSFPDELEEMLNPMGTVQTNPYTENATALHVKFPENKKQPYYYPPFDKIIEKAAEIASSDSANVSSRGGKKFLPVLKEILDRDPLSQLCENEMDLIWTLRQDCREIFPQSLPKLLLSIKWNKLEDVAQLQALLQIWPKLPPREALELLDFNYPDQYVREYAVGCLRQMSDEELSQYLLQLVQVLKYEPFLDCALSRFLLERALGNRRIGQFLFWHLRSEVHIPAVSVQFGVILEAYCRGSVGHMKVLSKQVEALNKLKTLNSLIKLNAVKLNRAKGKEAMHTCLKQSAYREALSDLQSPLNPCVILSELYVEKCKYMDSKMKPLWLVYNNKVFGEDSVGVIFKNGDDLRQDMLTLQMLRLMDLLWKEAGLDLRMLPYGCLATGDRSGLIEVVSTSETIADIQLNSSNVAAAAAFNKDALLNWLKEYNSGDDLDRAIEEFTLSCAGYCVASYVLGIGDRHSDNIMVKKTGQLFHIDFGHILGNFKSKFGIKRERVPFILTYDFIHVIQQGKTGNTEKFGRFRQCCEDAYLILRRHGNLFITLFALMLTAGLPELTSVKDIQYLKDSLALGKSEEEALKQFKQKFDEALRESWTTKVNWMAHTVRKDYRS
PI3-kinase p110-delta/p85-alpha, sequence (P27986 whole entry): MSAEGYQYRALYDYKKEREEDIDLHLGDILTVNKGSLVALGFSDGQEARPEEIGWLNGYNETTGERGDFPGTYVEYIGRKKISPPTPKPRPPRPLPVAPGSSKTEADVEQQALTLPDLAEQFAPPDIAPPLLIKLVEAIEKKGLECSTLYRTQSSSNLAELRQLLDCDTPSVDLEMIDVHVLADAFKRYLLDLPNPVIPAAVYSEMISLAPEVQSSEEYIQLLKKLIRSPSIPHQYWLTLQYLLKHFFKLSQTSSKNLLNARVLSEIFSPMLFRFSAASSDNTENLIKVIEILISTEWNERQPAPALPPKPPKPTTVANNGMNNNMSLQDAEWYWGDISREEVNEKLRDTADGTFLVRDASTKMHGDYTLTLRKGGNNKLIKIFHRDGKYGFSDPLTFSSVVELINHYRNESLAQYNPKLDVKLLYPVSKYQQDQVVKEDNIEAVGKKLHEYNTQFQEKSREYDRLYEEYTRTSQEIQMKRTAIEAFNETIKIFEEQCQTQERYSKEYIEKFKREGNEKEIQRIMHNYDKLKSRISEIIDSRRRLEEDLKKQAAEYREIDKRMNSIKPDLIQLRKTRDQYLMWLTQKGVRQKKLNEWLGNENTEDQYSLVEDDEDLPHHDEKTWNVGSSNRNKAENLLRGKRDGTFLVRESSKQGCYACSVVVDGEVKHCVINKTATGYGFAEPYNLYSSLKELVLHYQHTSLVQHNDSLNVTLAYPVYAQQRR
PI3-kinase p110-delta/p85-alpha, sequence (O00329 whole entry): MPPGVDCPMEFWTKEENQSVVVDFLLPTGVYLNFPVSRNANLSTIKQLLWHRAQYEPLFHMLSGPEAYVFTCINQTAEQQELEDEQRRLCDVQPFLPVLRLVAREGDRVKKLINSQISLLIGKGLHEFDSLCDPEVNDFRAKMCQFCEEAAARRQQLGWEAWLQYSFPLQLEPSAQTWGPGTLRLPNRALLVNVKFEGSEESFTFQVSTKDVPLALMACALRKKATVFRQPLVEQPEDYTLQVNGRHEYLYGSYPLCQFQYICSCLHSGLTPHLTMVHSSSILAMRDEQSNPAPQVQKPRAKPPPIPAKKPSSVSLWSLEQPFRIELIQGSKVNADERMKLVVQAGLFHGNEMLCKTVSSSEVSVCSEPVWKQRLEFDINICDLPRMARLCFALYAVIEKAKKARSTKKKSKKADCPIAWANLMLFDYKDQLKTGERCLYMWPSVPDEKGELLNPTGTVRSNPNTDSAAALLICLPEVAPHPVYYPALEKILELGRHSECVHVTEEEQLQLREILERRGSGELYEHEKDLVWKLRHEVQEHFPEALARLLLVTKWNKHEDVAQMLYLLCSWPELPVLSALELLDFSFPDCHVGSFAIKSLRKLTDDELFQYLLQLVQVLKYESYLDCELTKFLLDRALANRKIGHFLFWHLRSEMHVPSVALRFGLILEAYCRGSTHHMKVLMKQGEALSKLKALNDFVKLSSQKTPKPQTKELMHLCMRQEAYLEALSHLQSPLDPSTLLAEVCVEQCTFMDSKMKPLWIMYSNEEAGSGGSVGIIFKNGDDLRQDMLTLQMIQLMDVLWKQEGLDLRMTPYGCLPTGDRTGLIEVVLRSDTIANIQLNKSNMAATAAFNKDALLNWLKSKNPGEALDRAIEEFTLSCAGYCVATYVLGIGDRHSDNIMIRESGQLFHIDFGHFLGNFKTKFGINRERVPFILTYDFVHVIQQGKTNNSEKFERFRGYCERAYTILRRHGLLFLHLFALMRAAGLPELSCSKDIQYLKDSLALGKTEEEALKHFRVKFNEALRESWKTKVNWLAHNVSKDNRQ
PI3-kinase p110-alpha/p85-alpha, sequence (P27986 whole entry): as the sequence (P27986 whole entry) above
PI3-kinase p110-alpha/p85-alpha, sequence (P42336 whole entry): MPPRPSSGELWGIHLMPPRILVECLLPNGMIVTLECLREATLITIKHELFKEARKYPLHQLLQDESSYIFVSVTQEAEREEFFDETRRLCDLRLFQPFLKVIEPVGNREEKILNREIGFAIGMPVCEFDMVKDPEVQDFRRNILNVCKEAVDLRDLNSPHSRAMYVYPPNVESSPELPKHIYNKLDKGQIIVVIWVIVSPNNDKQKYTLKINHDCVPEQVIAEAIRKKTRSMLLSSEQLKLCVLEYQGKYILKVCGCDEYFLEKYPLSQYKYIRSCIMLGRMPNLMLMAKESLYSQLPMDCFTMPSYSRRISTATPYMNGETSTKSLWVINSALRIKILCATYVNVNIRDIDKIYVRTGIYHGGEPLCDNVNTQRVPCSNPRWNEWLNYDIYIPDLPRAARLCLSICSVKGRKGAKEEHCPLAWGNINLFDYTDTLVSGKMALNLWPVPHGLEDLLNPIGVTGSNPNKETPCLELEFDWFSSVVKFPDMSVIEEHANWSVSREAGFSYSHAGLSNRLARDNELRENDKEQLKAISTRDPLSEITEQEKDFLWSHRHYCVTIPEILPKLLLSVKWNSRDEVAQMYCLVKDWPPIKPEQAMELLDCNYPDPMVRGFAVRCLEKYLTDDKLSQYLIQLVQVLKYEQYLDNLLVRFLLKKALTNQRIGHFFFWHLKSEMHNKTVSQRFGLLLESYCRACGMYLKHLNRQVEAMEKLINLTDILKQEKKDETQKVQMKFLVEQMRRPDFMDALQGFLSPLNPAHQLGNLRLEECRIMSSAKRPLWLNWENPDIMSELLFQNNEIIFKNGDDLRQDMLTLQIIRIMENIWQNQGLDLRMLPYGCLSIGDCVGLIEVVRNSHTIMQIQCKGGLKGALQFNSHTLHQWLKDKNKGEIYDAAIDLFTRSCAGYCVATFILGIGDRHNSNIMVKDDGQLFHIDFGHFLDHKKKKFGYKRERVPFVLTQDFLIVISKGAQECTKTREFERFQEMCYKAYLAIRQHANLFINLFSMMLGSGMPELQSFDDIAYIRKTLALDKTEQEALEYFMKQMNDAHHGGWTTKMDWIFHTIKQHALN

C[C@@H]1CN(c2nc(N3CCOCC3)c3sc(-c4ccn[nH]4)cc3n2)C[C@H](C)O1
Cmax [1]: 1400 nM
bioavailability [2]: 41%
half-life [3]: 1.5 h
Activity (SK-OV-3 [4]): Active
inhibition in vivo at 60 mg/kg/day (SK-OV-3 [5]): 89.6%
IC50 [6]: 15 nM
TGI (SK-OV-3 [7]): Dose-dependent effect
AUC [8]: 5.2 µM·h
IC50 (U-87 MG [9]): 430 nM
IC50 (LNCaP): 210 nM
inhibition (Homo sapiens [10]): Dose-dependent effect
Vd [11]: 4.4 L/kg
Activity (Mus musculus [12]): Non-Toxic
inhibition (Homo sapiens [13]): Dose-dependent effect
inhibition (Mus musculus [14]): Dose-dependent effect
inhibition (Homo sapiens [15]): Dose-dependent effect
IC50 (SK-OV-3 [16]): 504 nM
Activity (Mus musculus [17]): Non-Toxic
inhibition in vivo at 40 mg/kg/day (U-87 MG [18]): 81.2%
TGI (U-87 MG [19]): Dose-dependent effect
IC50 [20]: 75 nM
inhibition in vivo at 20 mg/kg/day (U-87 MG [21]): 69.2%
inhibition in vivo at 15 mg/kg/day (SK-OV-3 [22]): 48.5%
IC50 [23]: 10 nM
IC50 [24]: 16 nM
inhibition (Homo sapiens [25]): Dose-dependent effect
inhibition (Mus musculus [26]): Dose-dependent effect
inhibition in vivo at 30 mg/kg/day (SK-OV-3 [27]): 75.9%
clearance [28]: 29 mL/min/kg
inhibition (Homo sapiens [29]): Dose-dependent effect
Activity (SK-OV-3 [30]): Dose-dependent effect
IC50 [31]: 175 nM
IC50 (PC-3): 446 nM
inhibition (Homo sapiens [32]): Dose-dependent effect
